In US12521356B2, “Compositions and methods for treating pain, inflammation, infection, malaria, and sepsis” (Duke University, priority 2018, dated 2026):

Target: T1, GPR32 (Homo sapiens, UniProt O75388)
T1 construct: host or cells: HEK293 flip-in cells
Test: Dot blot binding assay, positive control GPR32
Description: Lipids overlay assay. Lipids membrane coating and protein overlay assay was conducted as previously described (Ji R R, et al. Science 2016, 354, 572-577). Ethanol and chloroform soluble fatty acids were directly loaded on hydrophobic PVDF membrane (Bio-Rad). The fatty acids (NPD1, RvD1, RvE1, and DHA) coated membranes were dried and blocked with 1% BSA. The cell lysate and purified GPR37-V5 protein were incubated with the coating membrane for 2 h, and the binding was detected by anti-V5 tagged antibody (mouse, 1:1000, Thermo scientific, Catalog: 46-0705).
HEK cell culture and transfection. HEK293 flip-in cell line was purchased from Duke Cell Culture Facility. Cells were cultured in high glucose (4.5 g/L) Dulbecco's Modified Eagle's Medium containing 10% (v/v) fetal bovine serum (Gibco). Transfection (2 μg cDNA) was performed with Lonza electroporation (Lonza) at 70% confluency and the transfected cells were cultured in the same growth medium for 48 h before use. The hGPR37-V5 pLenti304 plasmids were obtained from DNASU (Tempe, AZ), and hGPR32, hChemR23 and hALX pcDNA3 plasmids were provided by Dr. Serhan from Harvard Medical School, Boston.
To determine whether NPD1 and TX14 bind to GPR37, we conducted dot blot assay by coating the blots with different concentrations of NPD1 and TX14 and included RvE1 as a control. […]

T1 sequence (O75388 whole entry): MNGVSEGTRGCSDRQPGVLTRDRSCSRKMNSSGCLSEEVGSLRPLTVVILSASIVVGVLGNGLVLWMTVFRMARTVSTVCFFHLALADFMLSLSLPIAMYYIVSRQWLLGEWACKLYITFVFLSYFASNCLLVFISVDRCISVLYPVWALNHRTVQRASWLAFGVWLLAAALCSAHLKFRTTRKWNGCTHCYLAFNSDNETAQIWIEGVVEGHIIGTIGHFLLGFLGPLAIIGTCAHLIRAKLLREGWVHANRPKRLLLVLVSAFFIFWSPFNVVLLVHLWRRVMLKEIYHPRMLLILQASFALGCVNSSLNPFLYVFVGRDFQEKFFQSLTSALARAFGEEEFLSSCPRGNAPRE

binding to GPR32: strong binding
Compound: CC/C=C\C[C@H](O)/C=C/C=C\C=C\C=C\[C@@H](O)[C@@H](O)C/C=C\CCC(=O)O [RvD1]
